Assay results taken from article PMC11601558, “SLC6A19 inhibition facilitates urinary neutral amino acid excretion and lowers plasma phenylalanine” (JCI Insight, 2024).
“And” between values parts separate entries of the source, which are not always exact repeats. Equal values may be shown once.

Experiments:
Pah^enu2 mice = test: Plasma Phe in Pah^enu2 mice on defined amino acid diets (0.75%, 0.45%, 0.225% Phe); format: in vivo, mouse; parameters: plasma Phe: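 plasma Phe concentration in µM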; conditions: for mean plasma Phe lower than vehicle / plasma Phe, mean ± SD: 200 mg/kg, 3 hours after dose; for plasma Phe: Fig 3e, Pah^enu2 mice on defined diet, individual animals
Procedure: To modulate baseline plasma Phe levels, 8–13-week-old male Pah^enu2 mice were maintained on isocaloric amino acid–defined diets with either 7.5 g/kg (0.75%, Teklad T.2018.15), 4.5 g/kg (0.45%, Teklad custom formulation), or 2.25 g/kg (0.225%, Teklad custom formulation) L-Phe for 2 weeks before a single dose administration of 200 mg/kg JN-170 or vehicle. Animals had unrestricted access to food and water throughout the study. Serial plasma samples were taken predose as well as 1, 3, 8, 24 and 48 hours after the dose. For all studies, mice were dosed at 7:00 a.m. ± 30 minutes to synchronize with circadian rhythm.
Plasma sample analyses were carried out by liquid chromatography tandem mass spectrometry (LC-MS/MS). Plasma samples were mixed 1:1 with carbamazepine or ^13C6-Phe as internal standards for JN-170 and Phe, respectively. Plasma proteins were precipitated by adding 4 volumes of acetonitrile (ACN) and 0.1% formic acid (FA) followed by centrifugation for 5 minutes at 2,100g. Supernatants were diluted 1:1 in ACN and 0.1% FA. For JN-170, a Waters HSS T3 reversed phase column was used for separation using a binary gradient of 0.1% FA in water (mobile phase A) to 0.1% in ACN (mobile phase B). At a flow rate of 0.8 mL/min, the mobile phase gradient increased from an initial 25% phase B to 95% phase B over 30 seconds. After, 1.5 minutes, the gradient was returned to 25% mobile phase B. For detection of Phe, an Acquity UPLC ethylene bridged hybrid (BEH) amide column was used, with a binary gradient of 10 mM ammonium acetate in 95:5:1 H2O:ACN:FA (mobile phase A) to 10 mM ammonium acetate in 95:5:1 ACN:H2O:FA (mobile phase B). At a flow rate of 0.5 mL/min, the mobile phase gradient changed from an initial 100% phase B to 50% phase B over 2.1 minutes. It was returned to 100% phase B after 4 minutes. Analytes were detected using a Sciex API-5500 in multiple reaction monitoring mode using an electrospray ionization source in the positive ion mode with the following ion transitions: m/z 435.2/84.1 (JN-170), 237.1/194.1 (carbamazepine), 166.1/120.1 (Phe), 172.2/126.2 for (^13C6-Phe). Analyte concentrations were calculated with a 1/×^2 linear regression over a concentration range of 1 or 2 to 5,000 ng/mL for JN-170 and 0.05–100 ng/mL for Phe.

SLC6A19 = target: T1, SLC6A19 (Homo sapiens, UniProt Q695T7); test: SLC6A19 glutamine transport assay in human postmortem intestinal epithelial cells; format: cell-based; conditions: endogenous SLC6A19; geometric mean n = 5, 3 donors; 95% CI 33–197 nM
T1 construct: human intestinal epithelial cells with endogenous expression levels of SLC6A19; tissue AnaBios; host or cells: epithelial cells scraped from distal jejunum of human postmortem intestine (3 male donors)
T1 sequence (Q695T7 whole entry): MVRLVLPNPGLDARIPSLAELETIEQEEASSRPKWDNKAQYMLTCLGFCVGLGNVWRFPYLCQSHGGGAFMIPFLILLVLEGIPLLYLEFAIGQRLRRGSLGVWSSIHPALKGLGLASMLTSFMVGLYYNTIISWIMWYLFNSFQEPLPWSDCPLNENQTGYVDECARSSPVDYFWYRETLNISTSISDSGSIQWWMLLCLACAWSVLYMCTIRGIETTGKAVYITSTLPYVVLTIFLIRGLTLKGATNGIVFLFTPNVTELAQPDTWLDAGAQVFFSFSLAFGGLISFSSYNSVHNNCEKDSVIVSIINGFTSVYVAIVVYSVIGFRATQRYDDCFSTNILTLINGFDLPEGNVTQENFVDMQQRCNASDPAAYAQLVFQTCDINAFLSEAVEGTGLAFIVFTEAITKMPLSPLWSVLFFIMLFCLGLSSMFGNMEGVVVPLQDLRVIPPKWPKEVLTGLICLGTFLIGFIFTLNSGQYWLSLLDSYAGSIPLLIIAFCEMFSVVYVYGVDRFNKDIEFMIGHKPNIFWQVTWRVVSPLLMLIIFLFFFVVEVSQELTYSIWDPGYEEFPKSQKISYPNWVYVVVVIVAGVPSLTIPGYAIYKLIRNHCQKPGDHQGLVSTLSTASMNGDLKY
T1 sequence (Q9BYF1 18-805 partner): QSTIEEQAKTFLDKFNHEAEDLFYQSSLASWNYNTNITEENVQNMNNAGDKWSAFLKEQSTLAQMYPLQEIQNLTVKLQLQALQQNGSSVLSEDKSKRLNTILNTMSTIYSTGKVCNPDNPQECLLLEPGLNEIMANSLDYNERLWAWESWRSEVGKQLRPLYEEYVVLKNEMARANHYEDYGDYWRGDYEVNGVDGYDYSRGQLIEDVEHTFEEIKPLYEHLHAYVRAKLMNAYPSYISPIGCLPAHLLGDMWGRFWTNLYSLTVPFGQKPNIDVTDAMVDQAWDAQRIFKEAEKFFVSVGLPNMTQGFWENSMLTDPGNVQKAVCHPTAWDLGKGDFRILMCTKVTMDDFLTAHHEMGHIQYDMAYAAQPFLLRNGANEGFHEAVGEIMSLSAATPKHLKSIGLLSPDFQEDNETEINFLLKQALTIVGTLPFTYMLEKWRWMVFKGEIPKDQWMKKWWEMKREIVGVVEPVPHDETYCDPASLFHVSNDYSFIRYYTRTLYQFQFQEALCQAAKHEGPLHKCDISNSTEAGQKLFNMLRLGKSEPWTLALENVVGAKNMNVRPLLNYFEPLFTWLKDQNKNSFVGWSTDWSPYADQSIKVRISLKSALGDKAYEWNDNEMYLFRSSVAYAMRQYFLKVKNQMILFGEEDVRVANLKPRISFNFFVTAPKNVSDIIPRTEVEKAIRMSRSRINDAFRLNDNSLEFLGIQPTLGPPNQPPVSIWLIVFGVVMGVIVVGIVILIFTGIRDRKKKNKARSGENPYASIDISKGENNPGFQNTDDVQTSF
Description: Human postmortem intestines from 3 male donors (ages 23–36 years) were provided by AnaBios. Following trimming of excess fat, the distal part of the jejunum was dissected into tissue sections of approximately 100 cm^2 and further processed on ice. These sections contained an estimated approximately 250 million epithelial cells ([28], [29]). Epithelial cells were scraped off each tissue section with a tissue scraper and collected in ice-cold Hank’s balanced salt solution (HBSS). Following centrifuging for 5 min at 300g at 4°C, the supernatant was aspirated and the cell pellet was washed 3–6 times by resuspending in ice-cold HBSS (Thermo Fisher Scientific). […]
Human postmortem epithelial cells isolated from small intestine were centrifuged for 5 minutes at 300g and 4°C and resuspended in Krebs buffer (140 mM sodium chloride, 4.7 mM KCl, 2.5 mM CaCl2, 1.2 mM MgCl2, 11 mM HEPES, 10 mM glucose, pH 7.4) at a density of 7.5 × 10^6 cells/mL. […] The uptake of 2,3,4-^3H–labeled L-glutamine was measured on a Microbeta^2 microplate counter (PerkinElmer).
IC50 values for transport inhibition in cells overexpressing SLC6A19 and TMEM27 were calculated using a 4-parameter logistic regression in Collaborative Drug Discovery (CDD). […] The IC50 values of individual experiments were calculated with a 3- or 4-parameter logistic regression using GraphPad Prism 9. […]

Structure (SMILES)	mean plasma Phe lower than vehicle (Pah^enu2 mice; 0.225% Phe diet) [%]	plasma Phe, mean ± SD (Pah^enu2 mice; 0.225% Phe diet) [µM]	mean plasma Phe lower than vehicle (Pah^enu2 mice; 0.45% Phe diet) [%]	plasma Phe, mean ± SD (Pah^enu2 mice; 0.45% Phe diet) [µM]	mean plasma Phe lower than vehicle (Pah^enu2 mice; 0.75% Phe diet) [%]	plasma Phe, mean ± SD (Pah^enu2 mice; 0.75% Phe diet) [µM]	plasma Phe (Pah^enu2 mice; time 0 h)	plasma Phe (Pah^enu2 mice; time 1 h)	plasma Phe (Pah^enu2 mice; time 3 h)	plasma Phe (Pah^enu2 mice; time 8 h)	plasma Phe (Pah^enu2 mice; time 24 h)	IC50 (SLC6A19) [nM]
N#Cc1ccc(-c2noc([C@]3(C(F)(F)F)CCN(C(=O)NCCC4(N)CC4)C3)n2)cc1 [JN-170]	47	309 ± 108	61	416 ± 117	59	621 ± 141	2027 and 2042 and 2474 and 2301 and 2768 and 2728 and 2723 and 1767 and 1191 and 962 and 924 and 848 and 1013 and 971 and 1061 and 1569 and 1364 and 1314	884 and 990 and 803 and 886 and 865 and 914 and 675 and 1252 and 589 and 1292 and 1010 and 927 and 813 and 907 and 727 and 787 and 898 and 1296 and 942 and 978	973 and 455 and 892 and 697 and 736 and 559 and 671 and 509 and 763 and 495 and 635 and 669 and 535 and 654 and 529 and 586 and 485 and 516 and 441 and 769 and 511 and 574	938 and 505 and 720 and 502 and 600 and 578 and 665 and 577 and 945 and 657 and 745 and 672 and 637 and 621 and 611 and 518 and 376 and 392 and 476 (2×) and 629	1767 and 1553 and 1370 and 1402 and 1592 and 597 and 1045 and 1827 and 1448 and 1043 and 988 and 1535 and 1388 and 1336 and 1203 and 1339 and 1578 and 871 and 1063	
NC(=O)N1CCC[C@@H](N(C(=O)NCc2ccc(OC(F)(F)F)cc2F)C2CC2)C1 [JNT-517]												81
